In patent US20190030114A1, “ISOFORM-SPECIFIC CALPAIN INHIBITORS, METHODS OF IDENTIFICATION, AND USES THEREOF” (WESTERN UNIVERSITY OF HEALTH SCIENCES, priority 2014, published 2019):

How the values were obtained:
learning and memory = test: fear conditioning protocol; format: in vivo, mice; settings: various doses i.p. 30 min before training
Method: (§1) FIG. 7A: Effects of an calpain-2 selective inhibitor on fear conditioning. […] Various doses of the compound of Formula I (m-CalpI in the drawing) were injected i.p. 30 min before training to learn the association between a context or a tone with a painful stimulus. Animals were tested 24 h later for their fear responses to the context, and memory strength was quantified by the amount of time mice freeze (their biological response to fear). The ratio between the doses producing enhancement and decrease matches the ratio between the Kis to inhibit calpain-2 and calpain-1. […] Results are means±S.E.M. of 8-10 experiments. *p<0.05 (ANOVA followed by Bonferroni post-test).
as §1, with “7B:” for “7A:”, “1 (m-CalpI)” for “I (m-CalpI in the drawing)”, “48” for “24”, “tone,” for “context,”
Formula 1 Enhances Memory. […] In this protocol, mice were trained to learn the association between a context or a tone with a painful stimulus. Various doses of the compound of Formula 1 (mCalp-I) were injected i.p. 30 min before training. Animals were tested 24 h later in the context (FIG. 7A) and 48 h later with the tone (FIG. 7B). When tested 24 h or 48 h later for their fear responses to either the context or the tone, memory strength was quantified by the amount of time mice freeze (their biological response to fear). The ratio between the doses producing enhancement and decrease matches the ratio between the Kis to inhibit calpain-2 and calpain-1. […] Results are means±S.E.M. of 8-10 experiments. *p<0.05 (ANOVA followed by Bonferroni post-test).

[1] = tested on: cultured cortical neurons; test: Bic- and 4-AP-induced neuroprotection against starvation, Hoechst staining; format: cell-based; settings: mCalp-I 200 nM
Excerpt: Neuronal death was observed and quantified by Hoechst staining. 300-500 neurons were counted for each group in three to 6 independent experiments. *p<0.05; ns, no significant difference; one-way ANOVA followed by Bonferroni test. n=3-6. Error Bar indicates SEM
Neuronal death was observed and quantified by Hoechst staining. 300-500 neurons were counted for each group in three to 6 independent experiments. *p<0.05; ns, no significant difference; one-way ANOVA followed by Bonferroni test. n=3-6. Error Bar indicates SEM (FIG. 6).

CCC(NC(=O)C(CC(C)C)NC(=O)OCc1ccccc1)C(=O)C(=O)NCc1cc(OC)cc(OC)c1 (racemic) [Formula 1, Z-Leu-Abu-CONH—CH2-C6H3 (3, 5-(OMe)2)]
effect on learning and memory in the fear conditioning protocol (learning and memory; context 24 h, tone 48 h): biphasic effect | effect on learning and memory, fear response to the context (learning and memory; tested 24 h later): biphasic effect | effect on learning and memory, fear response to the tone (learning and memory; tested 48 h later): biphasic effect | blocked Bic- and 4-AP-induced neuroprotection against starvation [1]: not
